{
  "source": "patent US11459613B2",
  "about": "“Methods of characterizing resistance to modulators of Cereblon” (THE BRIGHAM AND WOMEN'S HOSPITAL, INC., priority 2015, dated 2022)",
  "origin": "cited, not measured here",
  "conditions": "lenalidomide in combination with dexamethasone, front-line therapy, standard-risk multiple myeloma",
  "data": [
    {"smiles": "Nc1cccc2c1CN(C1CCC(=O)NC1=O)C2=O", "note": "(stereo not shown) [lenalidomide]", "values": [
      {"measurement": "disease progression develops after initiating treatment (on average)", "value": 11, "unit": "months"}
    ]}
  ]
}
